From the supplement of paper PMC10307832

What was measured:
Experiment in all cases: relative viability (nuclei count vs DMSO), 5 days (fraction); higher = more cells survive
[1] = test system: 201T
How it was run: (§1)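 One day after seeding in 1536-well plates, lung cancer cell lines were dosed by pin tool. Dosing was either single-drug or a fixed anchor-drug dose plus five library-drug doses (not always all listed) in √10 steps. After 5 days, nuclei were stained in one fix-and-stain step and counted on 4× images, and relative viability is the nuclei count of treated wells over that of vehicle wells, given as the median of duplicate plates.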

[2] = test system: BEN
How it was run: as §1

[3] = test system: COR-L 105
How it was run: as §1

[4] = test system: EKVX
How it was run: as §1

[5] = test system: EPLC-272H
How it was run: as §1

[6] = test system: H3255
How it was run: as §1

[7] = test system: HCC-827
How it was run: as §1

[8] = test system: HOP-62
How it was run: as §1

[9] = test system: LCLC-97TM1
How it was run: as §1

[10] = test system: LOU-NH91
How it was run: as §1

[11] = test system: LU99A
How it was run: as §1

[12] = test system: NCI-H1395
How it was run: as §1

[13] = test system: NCI-H1437
How it was run: as §1

[14] = test system: NCI-H1666
How it was run: as §1

[15] = test system: NCI-H1975
How it was run: as §1

[16] = test system: NCI-H2085
How it was run: as §1

[17] = test system: NCI-H2087
How it was run: as §1

[18] = test system: NCI-H2126
How it was run: as §1

[19] = test system: NCI-H2342
How it was run: as §1

[20] = test system: NCI-H358
How it was run: as §1

[21] = test system: NCI-H647
How it was run: as §1

[22] = test system: PC-3 [JPC-3]
How it was run: as §1

[23] = test system: SW 1573
How it was run: as §1

[24] = test system: HCC-44
How it was run: as §1

CC(C)Oc1cc(Nc2nc(N[C@@H](C)c3ccc(F)cn3)ncc2Cl)n[nH]1 [AZ23] + Cc1nc(Nc2ncc(C(=O)Nc3c(C)cccc3Cl)s2)cc(N2CCN(CCO)CC2)n1 [Dasatinib] (partner 0.075 µM)
relative viability ([1]; first compound 0.01 µM): 0.506
relative viability ([1]; first compound 0.03162 µM): 0.614
relative viability ([1]; first compound 0.3162 µM): 0.569
relative viability ([2]; first compound 0.01 µM): 0.309
relative viability ([2]; first compound 0.03162 µM): 0.398
relative viability ([2]; first compound 0.3162 µM): 0.304
relative viability ([3]; first compound 0.01 µM): 0.339
relative viability ([3]; first compound 0.03162 µM): 0.374
relative viability ([3]; first compound 0.3162 µM): 0.341
relative viability ([4]; first compound 0.01 µM): 0.503
relative viability ([4]; first compound 0.03162 µM): 0.551
relative viability ([4]; first compound 0.3162 µM): 0.48
relative viability ([5]; first compound 0.01 µM): 0.38
relative viability ([5]; first compound 0.03162 µM): 0.305
relative viability ([5]; first compound 0.3162 µM): 0.273
relative viability ([6]; first compound 0.01 µM): 0.364
relative viability ([6]; first compound 0.03162 µM): 0.66
relative viability ([6]; first compound 0.3162 µM): 0.418
relative viability ([7]; first compound 0.01 µM): 0.301
relative viability ([7]; first compound 0.03162 µM): 0.288
relative viability ([7]; first compound 0.3162 µM): 0.282
relative viability ([8]; first compound 0.01 µM): 0.702
relative viability ([8]; first compound 0.03162 µM): 0.684
relative viability ([8]; first compound 0.3162 µM): 0.631
relative viability ([9]; first compound 0.01 µM): 0.924
relative viability ([9]; first compound 0.03162 µM): 0.889
relative viability ([9]; first compound 0.3162 µM): 0.829
relative viability ([10]; first compound 0.01 µM): 0.565
relative viability ([10]; first compound 0.03162 µM): 0.589
relative viability ([10]; first compound 0.3162 µM): 0.551
relative viability ([11]; first compound 0.01 µM): 0.623
relative viability ([11]; first compound 0.03162 µM): 0.646
relative viability ([11]; first compound 0.3162 µM): 0.369
relative viability ([12]; first compound 0.03162 µM): 0.481
relative viability ([12]; first compound 0.3162 µM): 0.359
relative viability ([13]; first compound 0.01 µM): 0.354
relative viability ([13]; first compound 0.03162 µM): 0.443
relative viability ([13]; first compound 0.3162 µM): 0.418
relative viability ([14]; first compound 0.01 µM): 0.891
relative viability ([14]; first compound 0.03162 µM): 0.927
relative viability ([14]; first compound 0.3162 µM): 0.809
relative viability ([15]; first compound 0.01 µM): 0.453
relative viability ([15]; first compound 0.03162 µM): 0.405
relative viability ([15]; first compound 0.3162 µM): 0.326
relative viability ([16]; first compound 0.01 µM): 0.232
relative viability ([16]; first compound 0.03162 µM): 0.214
relative viability ([16]; first compound 0.3162 µM): 0.199
relative viability ([17]; first compound 0.01 µM): 1.29
relative viability ([17]; first compound 0.03162 µM): 1.04
relative viability ([17]; first compound 0.3162 µM): 0.751
relative viability ([18]; first compound 0.01 µM): 0.573
relative viability ([18]; first compound 0.03162 µM): 0.715
relative viability ([18]; first compound 0.3162 µM): 0.56
relative viability ([19]; first compound 0.01 µM): 0.299
relative viability ([19]; first compound 0.03162 µM): 0.31
relative viability ([19]; first compound 0.3162 µM): 0.339
relative viability ([20]; first compound 0.01 µM): 0.144
relative viability ([20]; first compound 0.03162 µM): 0.161
relative viability ([20]; first compound 0.3162 µM): 0.123
relative viability ([21]; first compound 0.01 µM): 0.174
relative viability ([21]; first compound 0.03162 µM): 0.215
relative viability ([21]; first compound 0.3162 µM): 0.17
relative viability ([22]; first compound 0.01 µM): 1.13
relative viability ([22]; first compound 0.03162 µM): 1.08
relative viability ([22]; first compound 0.3162 µM): 1.01
relative viability ([23]; first compound 0.01 µM): 0.747
relative viability ([23]; first compound 0.03162 µM): 0.605
relative viability ([23]; first compound 0.3162 µM): 0.52

C[C@@H]1CN(CC(=O)Nc2ccc3c(c2)Cc2cccc(-c4cc(=O)cc(N5CCOCC5)o4)c2S3)C[C@H](C)O1 + CS(=O)(=O)CCNCc1ccc(-c2ccc3ncnc(Nc4ccc(OCc5cccc(F)c5)c(Cl)c4)c3c2)o1 [Lapatinib] (partner 2 µM)
relative viability ([1]; first compound 0.04 µM): 1.07
relative viability ([1]; first compound 0.1265 µM): 0.976
relative viability ([1]; first compound 0.4 µM): 1.08
relative viability ([1]; first compound 4 µM): 0.988
relative viability ([2]; first compound 0.04 µM): 0.609
relative viability ([2]; first compound 0.1265 µM): 0.666
relative viability ([2]; first compound 0.4 µM): 0.738
relative viability ([2]; first compound 4 µM): 0.745
relative viability ([3]; first compound 0.04 µM): 0.28
relative viability ([3]; first compound 0.1265 µM): 0.302
relative viability ([3]; first compound 0.4 µM): 0.381
relative viability ([3]; first compound 4 µM): 0.359
relative viability ([4]; first compound 0.04 µM): 0.271
relative viability ([4]; first compound 0.1265 µM): 0.179
relative viability ([4]; first compound 0.4 µM): 0.224
relative viability ([4]; first compound 4 µM): 0.211
relative viability ([5]; first compound 0.04 µM): 0.837
relative viability ([5]; first compound 0.1265 µM): 1
relative viability ([5]; first compound 0.4 µM): 1.01
relative viability ([5]; first compound 4 µM): 0.783
relative viability ([6]; first compound 0.04 µM): 0.221
relative viability ([6]; first compound 0.1265 µM): 0.242
relative viability ([6]; first compound 0.4 µM): 0.233
relative viability ([6]; first compound 4 µM): 0.214
relative viability ([24]; first compound 0.04 µM): 0.94
relative viability ([24]; first compound 0.1265 µM): 1.02
relative viability ([24]; first compound 0.4 µM): 1.07
relative viability ([24]; first compound 4 µM): 0.922
relative viability ([7]; first compound 0.04 µM): 0.172
relative viability ([7]; first compound 0.1265 µM): 0.191
relative viability ([7]; first compound 0.4 µM): 0.212
relative viability ([7]; first compound 4 µM): 0.19
relative viability ([8]; first compound 0.04 µM): 0.549
relative viability ([8]; first compound 0.1265 µM): 1.01
relative viability ([8]; first compound 0.4 µM): 1.19
relative viability ([8]; first compound 4 µM): 0.953
relative viability ([9]; first compound 0.1265 µM): 0.851
relative viability ([9]; first compound 0.4 µM): 0.867
relative viability ([9]; first compound 4 µM): 0.858
relative viability ([10]; first compound 0.04 µM): 0.689
relative viability ([10]; first compound 0.1265 µM): 0.792
relative viability ([10]; first compound 0.4 µM): 0.676
relative viability ([10]; first compound 4 µM): 0.733
relative viability ([11]; first compound 0.04 µM): 0.783
relative viability ([11]; first compound 0.1265 µM): 1.15
relative viability ([11]; first compound 0.4 µM): 1.08
relative viability ([11]; first compound 4 µM): 1.04
relative viability ([12]; first compound 0.04 µM): 0.928
relative viability ([12]; first compound 0.1265 µM): 1
relative viability ([12]; first compound 0.4 µM): 1.06
relative viability ([12]; first compound 4 µM): 0.93
relative viability ([13]; first compound 0.04 µM): 0.758
relative viability ([13]; first compound 0.1265 µM): 0.703
relative viability ([13]; first compound 0.4 µM): 0.834
relative viability ([13]; first compound 4 µM): 0.702
relative viability ([14]; first compound 0.04 µM): 0.745
relative viability ([14]; first compound 0.1265 µM): 0.667
relative viability ([14]; first compound 0.4 µM): 0.665
relative viability ([14]; first compound 4 µM): 0.579
relative viability ([15]; first compound 0.04 µM): 0.871
relative viability ([15]; first compound 0.1265 µM): 0.803
relative viability ([15]; first compound 0.4 µM): 0.912
relative viability ([15]; first compound 4 µM): 0.754
relative viability ([16]; first compound 0.04 µM): 0.402
relative viability ([16]; first compound 0.1265 µM): 0.742
relative viability ([16]; first compound 0.4 µM): 0.624
relative viability ([16]; first compound 4 µM): 0.58
relative viability ([17]; first compound 0.04 µM): 1.06
relative viability ([17]; first compound 0.1265 µM): 1.01
relative viability ([17]; first compound 0.4 µM): 1.13
relative viability ([17]; first compound 4 µM): 0.798
relative viability ([18]; first compound 0.04 µM): 0.762
relative viability ([18]; first compound 0.1265 µM): 0.757
relative viability ([18]; first compound 0.4 µM): 0.764
relative viability ([18]; first compound 4 µM): 0.763
relative viability ([20]; first compound 0.04 µM): 0.356
relative viability ([20]; first compound 0.1265 µM): 0.427
relative viability ([20]; first compound 0.4 µM): 0.39
relative viability ([20]; first compound 4 µM): 0.417
relative viability ([21]; first compound 0.04 µM): 1.02
relative viability ([21]; first compound 0.1265 µM): 1.07
relative viability ([21]; first compound 0.4 µM): 1.16
relative viability ([21]; first compound 4 µM): 0.638
relative viability ([22]; first compound 0.04 µM): 0.512
relative viability ([22]; first compound 0.1265 µM): 0.394
relative viability ([22]; first compound 0.4 µM): 0.52
relative viability ([22]; first compound 4 µM): 0.454
relative viability ([23]; first compound 0.04 µM): 1.1
relative viability ([23]; first compound 0.1265 µM): 1.14
relative viability ([23]; first compound 0.4 µM): 1.18
relative viability ([23]; first compound 4 µM): 1.08
